Results: patent publication US10294202B2, “Pyrrolidinones as herbicides” (FMC Corporation, priority 2013, dated 2019)

Tests used:
barnyardgrass [1] = experiment: Test A pre-/postemergence herbicide test; assay type: in vivo, Echinochloa crus-galli
Summary of the method: (§1)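 Visual 0–100 ratings (100 = complete control) made about 10 days after treatment, greenhouse-held plants compared with untreated controls. Treatments: postemergence sprays on one- to two-leaf plants (2–10 cm tall) and preemergence directed soil sprays after planting in loam–sand, chemicals formulated in non-phytotoxic solvent containing surfactant.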

crabgrass, large = experiment: Test A pre-/postemergence herbicide test; assay type: in vivo, Digitaria sanguinalis
Summary of the method: as §1

giant foxtail = experiment: Test A pre-/postemergence herbicide test; assay type: in vivo, Setaria faberii
Summary of the method: as §1

morningglory = experiment: Test A pre-/postemergence herbicide test; assay type: in vivo, Ipomoea spp.
Summary of the method: as §1

pigweed = experiment: Test A pre-/postemergence herbicide test; assay type: in vivo, Amaranthus retroflexus
Summary of the method: as §1

velvetleaf = experiment: Test A pre-/postemergence herbicide test; assay type: in vivo, Abutilon theophrasti
Summary of the method: as §1

wheat = experiment: Test A pre-/postemergence herbicide test; assay type: in vivo, Triticum aestivum
Summary of the method: as §1

corn = experiment: Test A pre-/postemergence herbicide test; assay type: in vivo, Zea mays
Summary of the method: as §1

rice = experiment: Test B flooded paddy test; assay type: in vivo, Oryza sativa; details: Flood, scale of 0 to 100 where 0 is no effect and 100 is complete control
Protocol: (§2) Plant species in the flooded paddy test selected from rice (Oryza sativa), sedge, umbrella (small-flower umbrella sedge, Cyperus difformis), ducksalad (Heteranthera limosa), and barnyardgrass (Echinochloa crus-galli) were grown to the 2-leaf stage for testing. At time of treatment, test pots were flooded to 3 cm above the soil surface, treated by application of test compounds directly to the paddy water, and then maintained at that water depth for the duration of the test. Treated plants and controls were maintained in a greenhouse for 13 to 15 days, after which time all species were compared to controls and visually evaluated. Plant response ratings, summarized in Table B, are based on a scale of 0 to 100 where 0 is no effect and 100 is complete control. A dash (-) response means no test result.

sedge, umbrella = experiment: Test B flooded paddy test; assay type: in vivo, Cyperus difformis; details: Flood, scale of 0 to 100 where 0 is no effect and 100 is complete control
Protocol: as §2

ducksalad = experiment: Test B flooded paddy test; assay type: in vivo, Heteranthera limosa; details: Flood, scale of 0 to 100 where 0 is no effect and 100 is complete control
Protocol: as §2

barnyardgrass [2] = experiment: Test B flooded paddy test; assay type: in vivo, Echinochloa crus-galli; details: Flood, scale of 0 to 100 where 0 is no effect and 100 is complete control
Protocol: as §2

[3] = Postemergence, 125 g ai/ha, 0 to 100 scale, 0 is no effect, 100 is complete control
[4] = Postemergence, 500 g ai/ha, 0 to 100 scale (0 no effect, 100 complete control)
[5] = Preemergence, 125 g ai/ha, 0 to 100 scale where 0 is no effect and 100 is complete control
[6] = preemergence, 500 g ai/ha, 0 to 100 scale, 0 is no effect and 100 is complete control
[7] = Postemergence, 125 g ai/ha, 0 to 100 scale, 0 no effect, 100 complete control
[8] = Preemergence, 125 g ai/ha, visual rating on 0 to 100 scale (0 no effect, 100 complete control)
[9] = preemergence, 500 g ai/ha, 0 to 100 scale

O=C1NCC(c2ccc(C(F)(F)F)c(Cl)c2)C1C(=O)Nc1cccc(F)c1F (racemic) [Compound 250]
Plant response rating, Barnyardgrass (barnyardgrass [1]; [3]): 30
Plant response rating, Barnyardgrass (barnyardgrass [1]; [4]): 50
Plant response rating, Barnyardgrass (barnyardgrass [1]; [5]): 20
Plant response rating, Barnyardgrass (barnyardgrass [1]; [6]): 80
Plant response rating, Crabgrass, Large (crabgrass, large; [3]): 0
Plant response rating, Crabgrass, Large (crabgrass, large; [4]): 40
Plant response rating, Crabgrass, Large (crabgrass, large; [5]): 80
Plant response rating, Crabgrass, Large (crabgrass, large; [6]): 90
Plant response rating, Foxtail, Giant (giant foxtail; [3]): 30
Plant response rating, Foxtail, Giant (giant foxtail; [4]): 50
Plant response rating, Foxtail, Giant (giant foxtail; [5]): 50
Plant response rating, Foxtail, Giant (giant foxtail; [6]): 80
Plant response rating, Morningglory (morningglory; [3]): 0
Plant response rating, Morningglory (morningglory; [4]): 0
Plant response rating, Morningglory (morningglory; [5]): 0
Plant response rating, Morningglory (morningglory; [6]): 0
Plant response rating, Pigweed (pigweed; [3]): 0
Plant response rating, Pigweed (pigweed; [4]): 0
Plant response rating, Pigweed (pigweed; [5]): 0
Plant response rating, Pigweed (pigweed; [6]): 0
Plant response rating, Velvetleaf (velvetleaf; [3]): 0
Plant response rating, Velvetleaf (velvetleaf; [4]): 0
Plant response rating, Velvetleaf (velvetleaf; [5]): 0
Plant response rating, Velvetleaf (velvetleaf; [6]): 0
Plant response rating, Wheat (wheat; [3]): 0
Plant response rating, Wheat (wheat; [4]): 0
Plant response rating, Wheat (wheat; [5]): 0
Plant response rating, Wheat (wheat; [6]): 0
Plant response rating, Corn (corn; [3]): 0
Plant response rating, Corn (corn; [4]): 0
Plant response rating, Corn (corn; [5]): 0
Plant response rating, Corn (corn; [6]): 0
Plant response rating, Rice (rice; 1000 g ai/ha): 0
Plant response rating, Sedge, Umbrella (sedge, umbrella; 1000 g ai/ha): 0
Plant response rating, Ducksalad (ducksalad; 1000 g ai/ha): 80
Plant response rating, Barnyardgrass (barnyardgrass [2]; 1000 g ai/ha): 0

O=C1NCC(c2ccc(F)c(F)c2)C1C(=O)Nc1ccc[nH]c1=O (racemic) [Compound 97]
Plant response rating, Barnyardgrass (barnyardgrass [1]; [7]): 0
Plant response rating, Barnyardgrass (barnyardgrass [1]; [4]): 0
Barnyardgrass plant response rating (barnyardgrass [1]; [8]): 0
Plant response rating, Barnyardgrass (barnyardgrass [1]; preemergence, 500 g ai/ha, 0 to 100 scale (0 no effect, 100 complete control)): 0
Plant response rating, Crabgrass, Large (crabgrass, large; [7]): 0
Plant response rating, Crabgrass, Large (crabgrass, large; [4]): 0
Crabgrass, Large plant response rating (crabgrass, large; [8]): 0
Plant response rating, Crabgrass, Large (crabgrass, large; [9]): 0
Plant response rating, Foxtail, Giant (giant foxtail; [7]): 0
Plant response rating, Foxtail, Giant (giant foxtail; [4]): 0
Foxtail, Giant plant response rating (giant foxtail; [8]): 0
Plant response rating, Foxtail, Giant (giant foxtail; [9]): 0
Plant response rating, Morningglory (morningglory; [7]): 0
Plant response rating, Morningglory (morningglory; [4]): 0
Morningglory plant response rating (morningglory; [8]): 0
Plant response rating, Morningglory (morningglory; [9]): 0
Plant response rating, Pigweed (pigweed; [7]): 0
Plant response rating, Pigweed (pigweed; [4]): 0
Pigweed plant response rating (pigweed; [8]): 0
Plant response rating, Pigweed (pigweed; [9]): 0
Plant response rating, Velvetleaf (velvetleaf; [7]): 0
Plant response rating, Velvetleaf (velvetleaf; [4]): 0
Velvetleaf plant response rating (velvetleaf; [8]): 0
Plant response rating, Velvetleaf (velvetleaf; [9]): 0
Plant response rating, Wheat (wheat; [7]): 0
Plant response rating, Wheat (wheat; [4]): 0
Wheat plant response rating (wheat; [8]): 0
Plant response rating, Wheat (wheat; [9]): 0
Plant response rating, Corn (corn; [7]): 0
Plant response rating, Corn (corn; [4]): 0
Corn plant response rating (corn; [8]): 0
Plant response rating, Corn (corn; [9]): 0
Plant response rating, Rice (rice; 250 g ai/ha): 50
Plant response rating, Sedge, Umbrella (sedge, umbrella; 250 g ai/ha): 75
Plant response rating, Ducksalad (ducksalad; 250 g ai/ha): 70
Plant response rating, Barnyardgrass (barnyardgrass [2]; 250 g ai/ha): 50
